Data published in article PMC10251477, “Doubly Constrained C-terminal of Roc (COR) Domain-Derived Peptides Inhibit Leucine-Rich Repeat Kinase 2 (LRRK2) Dimerization” (ACS Chemical Neuroscience, 2023).
Where “and” joins values, the source holds several entries; their conditions need not be identical. Identical values can stand only once. Bridge positions count the residues as written; N and C are the ends. Square brackets hold non-standard residues; d marks the D form. Peptide text beside a SMILES is read from it. * marks the point of attachment. 5FAM = O=C1OC2(c3ccc(O)cc3Oc3cc(O)ccc32)c2ccc(C(=O)*)cc21; S5 = C=CCCC[C@](C)(N)C(=O)O; AEEEA = NCCOCCOCCOCC(=O)O

Tests used:
MBP-tagged RocCOR LRRK2 = molecular target: T1, MBP-tagged RocCOR LRRK2 (Homo sapiens, UniProt Q5S007); assay: Fluorescence polarization (FP) binding assay, wild-type RocCOR; settings: 10 nM FAM-labeled doubly stapled peptide, wild-type RocCOR 5 μM to 1 nM, 2 mM GTP, 10 mM MgCl2, 20 mM MOPS pH 7, 150 mM NaCl, 0.005% CHAPS, room temperature, 2 h, triplicate
T1 sequence (Q5S007 1328-1840 limits assumed): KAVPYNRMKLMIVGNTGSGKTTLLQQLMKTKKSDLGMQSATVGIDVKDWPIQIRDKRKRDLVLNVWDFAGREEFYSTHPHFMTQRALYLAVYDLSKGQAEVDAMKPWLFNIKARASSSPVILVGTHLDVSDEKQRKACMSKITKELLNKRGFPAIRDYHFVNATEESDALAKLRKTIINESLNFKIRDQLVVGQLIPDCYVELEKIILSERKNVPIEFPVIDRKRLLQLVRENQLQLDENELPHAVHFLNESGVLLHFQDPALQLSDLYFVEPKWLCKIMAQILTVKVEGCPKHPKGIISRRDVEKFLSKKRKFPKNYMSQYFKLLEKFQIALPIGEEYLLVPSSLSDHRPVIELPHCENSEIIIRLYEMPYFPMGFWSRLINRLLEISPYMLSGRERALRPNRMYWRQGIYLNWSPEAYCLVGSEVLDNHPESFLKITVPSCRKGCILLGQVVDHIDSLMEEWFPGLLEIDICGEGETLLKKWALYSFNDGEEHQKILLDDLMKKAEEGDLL
Protocol: Fluorescence polarization assays were conducted on the lead doubly constrained compounds (ECOR and ECOR A12G) with two separate LRRK2 protein constructs: MBP-tagged RocCOR LRRK2 and MBP-tagged R1441C RocCOR LRRK2, both in the presence of 2 mM GTP and 10 mM MgCl2. Protein/peptide interactions were measured in a FP buffer (20 mM MOPS, pH 7, 150 mM NaCl, and 0.005% CHAPS) at room temperature. FAM-labeled peptides were plated in 384-well microtiter plates at a final concentration of 10 nM. Proteins were added over concentrations ranging from 5 μM to 1 nM. Each protein/peptide interaction experiment was carried out at 10 different protein concentrations in triplicate. Each protein/peptide mixture was incubated at room temperature for 2 h and the final reading was performed at the end of this 2 h period.

[1] = molecular target: T2, purified full-length LRRK2 dimer (Homo sapiens, UniProt Q5S007); assay: Mass photometry assay of LRRK2 dimerization; assay type: biochemical; settings: LRRK2 at 75 nM and 100 nM, 7.5-fold excess of peptide, 30 min, 30 °C, three measurements
T2 construct: Purified full-length LRRK2 was incubated for 30 min; made in house
Protocol: LRRK2 was purified as previously described.[30] LRRK2 was diluted to a concentration of 150 nM or 200 nM and incubated with constrained peptide in a 1:7.5 ratio, for 30 min at 30 °C. Mass photometry was performed on a Refeyn Two^MP instrument.[30] The instrument was first focused with 10 μL of buffer (50 mM HEPES, 150 mM NaCl, 5 mM MgCl2, 1 mM DTT, 0.1 mM GDP, and 1% glycerol) after which 10 μL of the incubated LRRK2 solution was added. The samples were recorded for 1 min. Three measurements were processed for each condition, and the data were analyzed by GraphPad Prism.

[2] = test system: primary cortical neurons expressing LRRK2 G2019S; assay: Neuronal apoptosis in primary cortical neurons; assay type: cell-based; settings: primary cortical neurons (E16 C57BL mice) transfected with Flag-LRRK2 G2019S; 0.5–1 μM peptide, 48 h; % Flag-positive neurons with apoptotic nuclei; three biological replicates
Protocol: Neurons were then transfected using Lipofectamine 2000 with Flag-tagged WT LRRK2 or G2019S LRRK2. The following day, neurons were treated with 0.5 μM and 1 μM of both ECO[…] and ECO[…] for 48 h. Cells were washed in PBS and fixed in 3.7% paraformaldehyde for 20 min at 4 °C prior to antibody treatments. Images were analyzed and quantifications were performed as previously described.[30] For the determination of apoptotic neuronal death, fixed and stained neurons were visualized under a 40× magnification objective (dry). On each coverslip, a minimum of 100 Flag-positive neurons were identified and the percentage of those with apoptotic profiles was determined. Apoptotic nuclei were defined as neurons having condensed chromatin, fragmented into at least 2 or more “apoptotic bodies”.

[3] = molecular target: T3, LRRK2 G2019S homodimers in HEK293T cells (Homo sapiens, UniProt Q5S007, G2019S); assay: Proximity biotinylation of dimeric LRRK2 in cells; assay type: cell-based; settings: FAM-labeled peptide 0.5–2.5 μM, 48 h treatment, ELISA of biotinylated LRRK2 normalized to total LRRK2, biological triplicates
T3 construct: expressed in transfected cells; host or cells: HEK293T
Protocol: LRRK2 dimerization was assessed using either wild-type LRRK2 homodimers or LRRK2 G2019S homodimers. Experiments were carried out using various concentrations (0.5, μM, 1 μM, or 2.5 μM) of FAM-labeled ECOR or ECOR […]. The LRRK2 dimers used were purified as previously described.[18] To generate these dimers, two cDNAs encoding LRRK2 fusions with biotin ligase (BirA; N-term, Flag-tagged) or an acceptor peptide (AP, N-term; c-Myc tagged) were created. These constructs were expressed in HEK293T cells grown in biotin-depleted medium (OptiMEM+2% FBS). FAM-labeled ECO[…] and ECO[…] were diluted in serum-free medium and added 24 h after transfection. 48 h following the initial treatment (after 72 h of total expression), cells were washed in PBS, given a brief biotin pulse (50 μM, 5 min, 37 °C), washed three more times in PBS, and centrifuged. The cell pellet was snap frozen in a dry ice/methanol bath and stored at -80 °C until analysis. […] Protein-bound SA coated plates were incubated with HRP-conjugated anti-Flag antibodies for 1 h at room temperature to quantify dimeric LRRK2. Total LRRK2 overexpression was quantified using HRP-conjugated LRRK2 antibody (clone N241) on the parallel anti-LRRK2 coated plates (precoated with anti-LRRK2, clone c41-2) and was used to normalize dimeric LRRK2 content. […]

[4] = test system: GFP-LRRK2 in HEK293 cells; assay: LRRK2 microtubule localization assay in live cells; assay type: cell-based; settings: HEK293 cells overexpressing GFP-LRRK2 24 h, 37 °C, SiR-tubulin stain, live imaging
Protocol: HEK293 cells were transfected with GFP–LRRK2 for 24 h and subsequently treated with DMSO, 1 μM MLi-2, and 2.5 μM ECOR or ECOR A12G peptide for 6 h at 37 °C. The transfected cells were scored single-blinded for skein-like filamentous structures per condition. For tubulin staining, after a 6 h incubation with DMSO, MLi-2, or biotin-labeled peptides, the media was replaced with media containing 1 μM SiR-tubulin (Spirochrome SiR-tubulin Kit (SC002)) and 10 μM verapamil (a broad spectrum efflux pump inhibitor) for 1 h at 37 °C. Live cells were imaged using the 63× oil-immersion objective of a Zeiss LSM800 confocal laser scanning microscope. The Zeiss microscope software ZEN was used to generate channel overlays.

in vitro = in vitro ADME; settings: human, cells or culture medium
Protocol: Fully confluent HEK293 cells were lysed using ice-cold nondenaturing lysis buffer (20 mM Tris HCL, pH 8.0, 137 mM NaCl, 1% Triton X-100, 2 mM EDTA) and incubated for 30 min at 4 °C. Cells were centrifuged for 20 min at 12 000 rpm, and the supernatant was collected and kept on ice. […] Experiments were conducted at 37 °C with agitation for 0, 2, 4, and 6 h. Aliquots were collected and quenched at each indicated time point using an equal volume of 0.1% trifluoroacetic acid (TFA) in acetonitrile. This solution was then centrifuged at 14 000 rpm for 5 min, and the supernatant was used for analysis. Peptide degradation was analyzed on LC-MS using a Zorbax Eclipse XDB-C18 column as a ratio of peptide to control relative to peptide at t = 0 at 280 nm. A flow rate of 1.0 mL/min at 45 °C was used with a 0–100% water/acetonitrile gradient containing 0.1% TFA. Each individual peptide was analyzed in triplicate for each time point.

[5] = test system: LRRK2 substrate Rab10 (phospho-T73) in A549 PPM1H knockout cells; assay: Rab10 phosphorylation immunoblotting (LRRK2 kinase activity); assay type: cell-based; settings: Western blot; for downregulation of Rab10 phosphorylation: 1 μM and 2.5 μM peptide (both concentrations), 6 h, pRab10 T73 over total Rab10, normalized to GAPDH and untreated control
Protocol: A549 PPM1H knockout cells were treated with 1 μM and 2.5 μM of doubly constrained peptide for 6 h. Cells treated with 1 μM MLi-2 were used as a positive control. Cell lysates were separated by SDS-PAGE and transferred to PVDF membranes by wet transfer. pRab10 T73 and total Rab10 signals were blotted on different membranes with GAPDH as a loading control on the same membrane to save the membrane from the stripping step. The membranes were blocked in nonfat milk and probed with Rab10 (phospho-T73) (Abcam; ab241060, Lot; GR327 4620-4), total Rab10 (Cell Signaling Technology; #4262S), and total GAPDH (14C10) (Cell Signaling Technology; #2118S) antibodies overnight at 4 °C, followed by incubation with HRP anti-rabbit secondary antibody, and developed using ECL. The blots were quantified using Image Studio Lite version 5.2 by selecting the bands to obtain the intensity for each band. The phospho-Rab10, total Rab10, and GAPDH signal for every sample were normalized to its untreated control for the same day. The phospho-Rab10 and total Rab10 signal was further normalized to the GAPDH signal (loading control) on the same blot. The graph was plotted with GAPDH normalized phospho-Rab10 signal over total Rab10 signal for every sample (*normalized to untreated sample). [drawing 1]

[6] = 2.5 μM biotin-labeled peptide, 6 h, minimum 500 cells scored

T3 sequence (Q5S007 whole entry G2019S): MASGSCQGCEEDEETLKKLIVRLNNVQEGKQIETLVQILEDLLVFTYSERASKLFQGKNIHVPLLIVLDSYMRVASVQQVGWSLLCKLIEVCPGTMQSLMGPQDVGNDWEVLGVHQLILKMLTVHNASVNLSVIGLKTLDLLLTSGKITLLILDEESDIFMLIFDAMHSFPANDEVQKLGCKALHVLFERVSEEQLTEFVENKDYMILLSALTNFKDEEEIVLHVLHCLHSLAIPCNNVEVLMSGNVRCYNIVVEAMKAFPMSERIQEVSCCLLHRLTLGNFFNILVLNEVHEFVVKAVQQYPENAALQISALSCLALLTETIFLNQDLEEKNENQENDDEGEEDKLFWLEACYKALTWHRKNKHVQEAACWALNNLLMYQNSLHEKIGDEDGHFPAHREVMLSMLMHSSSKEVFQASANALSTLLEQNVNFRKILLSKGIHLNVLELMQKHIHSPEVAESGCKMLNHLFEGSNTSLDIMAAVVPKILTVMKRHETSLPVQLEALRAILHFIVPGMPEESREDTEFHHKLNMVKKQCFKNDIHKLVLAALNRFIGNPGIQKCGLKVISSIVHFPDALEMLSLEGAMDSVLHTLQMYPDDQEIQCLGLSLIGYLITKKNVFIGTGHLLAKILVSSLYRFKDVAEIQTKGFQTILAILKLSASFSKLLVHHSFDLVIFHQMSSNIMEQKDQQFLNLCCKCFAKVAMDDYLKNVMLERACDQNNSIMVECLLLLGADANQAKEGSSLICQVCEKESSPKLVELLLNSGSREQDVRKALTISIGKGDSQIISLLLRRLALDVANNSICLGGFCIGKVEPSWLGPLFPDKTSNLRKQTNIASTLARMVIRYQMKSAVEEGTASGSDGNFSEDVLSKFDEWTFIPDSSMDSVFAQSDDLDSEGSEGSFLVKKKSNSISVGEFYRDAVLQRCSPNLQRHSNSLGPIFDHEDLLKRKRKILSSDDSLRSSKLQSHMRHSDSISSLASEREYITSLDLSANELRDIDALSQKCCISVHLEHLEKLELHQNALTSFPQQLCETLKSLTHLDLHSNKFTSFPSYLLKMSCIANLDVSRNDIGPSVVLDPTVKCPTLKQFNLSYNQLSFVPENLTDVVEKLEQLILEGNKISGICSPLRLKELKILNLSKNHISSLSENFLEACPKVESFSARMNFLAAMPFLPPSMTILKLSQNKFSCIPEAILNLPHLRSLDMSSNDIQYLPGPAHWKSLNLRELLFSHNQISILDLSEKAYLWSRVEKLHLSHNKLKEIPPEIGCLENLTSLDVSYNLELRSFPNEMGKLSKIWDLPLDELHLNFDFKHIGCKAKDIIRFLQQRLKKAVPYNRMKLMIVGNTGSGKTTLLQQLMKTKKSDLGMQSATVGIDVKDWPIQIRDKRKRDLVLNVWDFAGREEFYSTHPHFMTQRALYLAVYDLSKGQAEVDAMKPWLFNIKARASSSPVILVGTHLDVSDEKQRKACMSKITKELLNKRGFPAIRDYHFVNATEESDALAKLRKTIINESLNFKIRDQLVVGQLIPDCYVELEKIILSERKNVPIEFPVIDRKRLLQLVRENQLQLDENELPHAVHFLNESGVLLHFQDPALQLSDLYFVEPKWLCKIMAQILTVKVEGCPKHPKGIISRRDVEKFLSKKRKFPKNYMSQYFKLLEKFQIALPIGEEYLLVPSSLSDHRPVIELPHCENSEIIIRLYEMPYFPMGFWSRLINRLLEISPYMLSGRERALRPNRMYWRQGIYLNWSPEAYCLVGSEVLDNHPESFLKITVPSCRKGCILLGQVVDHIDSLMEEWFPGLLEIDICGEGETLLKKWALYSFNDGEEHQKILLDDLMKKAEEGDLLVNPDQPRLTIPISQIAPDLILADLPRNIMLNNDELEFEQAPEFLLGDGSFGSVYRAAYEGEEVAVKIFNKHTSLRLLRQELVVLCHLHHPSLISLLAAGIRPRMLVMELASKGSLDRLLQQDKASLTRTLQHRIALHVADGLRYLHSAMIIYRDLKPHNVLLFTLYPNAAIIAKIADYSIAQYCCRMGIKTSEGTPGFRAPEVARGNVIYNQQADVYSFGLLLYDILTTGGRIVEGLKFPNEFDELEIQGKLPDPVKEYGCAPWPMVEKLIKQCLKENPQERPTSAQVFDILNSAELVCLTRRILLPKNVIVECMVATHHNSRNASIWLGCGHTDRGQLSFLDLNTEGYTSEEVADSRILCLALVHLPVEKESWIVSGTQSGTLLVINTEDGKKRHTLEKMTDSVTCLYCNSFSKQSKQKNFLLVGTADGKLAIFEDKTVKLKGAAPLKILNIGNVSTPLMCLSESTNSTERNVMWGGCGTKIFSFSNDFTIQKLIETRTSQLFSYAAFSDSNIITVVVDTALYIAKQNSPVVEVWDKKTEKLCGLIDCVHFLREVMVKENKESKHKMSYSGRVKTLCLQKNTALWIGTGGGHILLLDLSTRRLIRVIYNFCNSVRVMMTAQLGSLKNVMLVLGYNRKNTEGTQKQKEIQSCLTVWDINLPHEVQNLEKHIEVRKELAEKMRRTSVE
T2 sequence (Q5S007 whole entry): as the sequence (Q5S007 whole entry G2019S) above, with S2019G counted along it

| Structure (SMILES) | Kd (MBP-tagged RocCOR LRRK2) | inhibition of LRRK2 dimer formation [1] | reduction of cortical neuronal apoptosis [2] | downregulation of intracellular LRRK2 G2019S dimerization [3] | localization of LRRK2 to microtubules as filamentous skein-like structures [4, 6] | remaining at 6 h, 0.2 mM (in vitro) [%] | downregulation of Rab10 phosphorylation [5] | localization of LRRK2 to microtubules as filamentous skein-like structures ([4]; 1 μM MLi-2, 6 h) | inhibition of Rab10 phosphorylation ([5]; 1 μM MLi-2 (positive control)) |
| --- | --- | --- | --- | --- | --- | --- | --- | --- | --- |
| CC(C)C[C@H](NC(=O)[C@H](CCCCN)NC(=O)[C@]1(C)CCCC=CCCC[C@](C)(NC(=O)[C@H](Cc2c[nH]cn2)NC(=O)[C@H](CCCCN)NC(=O)[C@H](CCC(=O)O)NC(=O)CNC(=O)[C@H](CC(=O)O)NC(=O)[C@H](CC(N)=O)NC(=O)[C@H](Cc2ccccc2)NC(=O)[C@H](CO)NC(=O)[C@H](Cc2ccc(O)cc2)NC(=O)[C@H](CC(C)C)NC(=O)CNC(=O)[C@H](Cc2c[nH]c3ccccc23)NC(=O)[C@]2(C)CCCC=CCCC[C@](C)(NC(=O)[C@H](CCC(=O)O)NC(=O)CNC(=O)[C@H](CCC(=O)O)NC(=O)CNC(=O)[C@H](CCCCN)NC(=O)COCCOCCOCCNC(=O)c3ccc4c(c3)C(=O)OC43c4ccc(O)cc4Oc4cc(O)ccc43)C(=O)N[C@@H](CC(C)C)C(=O)N[C@@H](CC(C)C)C(=O)N[C@@H](CCCCN)C(=O)N2)C(=O)N[C@@H](CCCCN)C(=O)N[C@@H](CCCCN)C(=O)N[C@@H](CC(C)C)C(=O)N1)C(N)=O [ECOR A12G] ({5FAM-AEEEA}-KGEGE[S5]LLK[S5]WGLYSFNDGEKH[S5]KKL[S5]KL-NH2; staple 6-10, 23-27) | 0.045 to 0.06 µM and 0.057 µM | strongest dimer inhibition | over 50% | 50–60% | no significant localization | > 80 | ~40% | – | – |
| CC(C)C[C@H](NC(=O)[C@H](CCCCN)NC(=O)[C@]1(C)CCCC=CCCC[C@](C)(NC(=O)[C@H](Cc2c[nH]cn2)NC(=O)[C@H](CCCCN)NC(=O)[C@H](CCC(=O)O)NC(=O)CNC(=O)[C@H](CC(=O)O)NC(=O)[C@H](CC(N)=O)NC(=O)[C@H](Cc2ccccc2)NC(=O)[C@H](CO)NC(=O)[C@H](Cc2ccc(O)cc2)NC(=O)[C@H](CC(C)C)NC(=O)[C@H](C)NC(=O)[C@H](Cc2c[nH]c3ccccc23)NC(=O)[C@]2(C)CCCC=CCCC[C@](C)(NC(=O)[C@H](CCC(=O)O)NC(=O)CNC(=O)[C@H](CCC(=O)O)NC(=O)CNC(=O)[C@H](CCCCN)NC(=O)COCCOCCOCCNC(=O)c3ccc4c(c3)C(=O)OC43c4ccc(O)cc4Oc4cc(O)ccc43)C(=O)N[C@@H](CC(C)C)C(=O)N[C@@H](CC(C)C)C(=O)N[C@@H](CCCCN)C(=O)N2)C(=O)N[C@@H](CCCCN)C(=O)N[C@@H](CCCCN)C(=O)N[C@@H](CC(C)C)C(=O)N1)C(N)=O [ECOR] ({5FAM-AEEEA}-KGEGE[S5]LLK[S5]WALYSFNDGEKH[S5]KKL[S5]KL-NH2; staple 6-10, 23-27) | 0.045 to 0.06 µM and 0.045 µM | – | over 50% | 50–60% | no significant localization | > 80 | not found to have measurable effects | – | – |
| C[C@@H]1CN(c2cc(-c3n[nH]c4ccc(OC5(C)CC5)cc34)ncn2)C[C@H](C)O1 [MLi-2, reference compound] | – | – | – | – | – | – | – | considerable colocalization with tubulin | nearly completely inhibited |
